# Test results as given in PMC12305494, “Discovery of PXR Antagonist MI891 and PXR Degrader MI1013 and Their Roles in Hepatic Gene Regulation” (Journal of Medicinal Chemistry, 2025).
# Values joined by “and” are separate entries in the source; they are usually repeats but may differ in a detail not shown here. Identical values can stand only once.
# How the values were obtained:
# [1] = molecular target: T1, PXR (Homo sapiens, UniProt O75469); assay: cell-based
# T1 sequence (O75469 1-434): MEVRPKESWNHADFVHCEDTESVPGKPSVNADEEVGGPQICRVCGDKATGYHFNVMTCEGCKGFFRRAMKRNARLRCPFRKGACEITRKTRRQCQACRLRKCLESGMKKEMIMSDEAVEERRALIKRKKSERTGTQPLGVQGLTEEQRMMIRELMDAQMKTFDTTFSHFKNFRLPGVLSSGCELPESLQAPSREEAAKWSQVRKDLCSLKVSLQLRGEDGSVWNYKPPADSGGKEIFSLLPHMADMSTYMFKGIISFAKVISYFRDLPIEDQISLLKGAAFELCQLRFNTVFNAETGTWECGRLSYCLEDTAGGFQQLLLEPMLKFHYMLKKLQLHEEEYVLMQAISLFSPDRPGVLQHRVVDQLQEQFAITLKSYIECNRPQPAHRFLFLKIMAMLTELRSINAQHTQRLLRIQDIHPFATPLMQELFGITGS
# [2] = molecular target: T2, Mnk2(h) (Homo sapiens, UniProt Q9HBH9); assay: Off-target kinase panel; assay type: biochemical; settings: MI891 @ 1 µM
# T2 construct: purchased Eurofins (Millipore) KinaseProfiler, inferred from the naming style
# Protocol: (§1) To evaluate the selectivity of MI891, an off-target profiling study was performed using a panel of 58 kinases.
# [3] = molecular target: T3, KDR(h) (Homo sapiens, UniProt P35968); assay: Off-target kinase panel; assay type: biochemical; settings: MI891 @ 1 µM
# T3 construct: purchased Eurofins (Millipore) KinaseProfiler, inferred from the naming style
# Protocol: as §1
# [4] = molecular target: T4, PI3 Kinase (p110d/p85a)(h) (Homo sapiens, UniProt O00329); assay: Off-target kinase panel; assay type: biochemical; settings: MI891 @ 1 µM
# T4 construct: purchased Eurofins (Millipore) KinaseProfiler, inferred from the naming style
# Protocol: as §1
# [5] = molecular target: T5, mTOR(h) (Homo sapiens, UniProt P42345); assay: Off-target kinase panel; assay type: biochemical; settings: MI891 @ 1 µM
# T5 construct: purchased Eurofins (Millipore) KinaseProfiler, inferred from the naming style
# Protocol: as §1
# [6] = molecular target: DRAK1(h) (Homo sapiens, UniProt Q9UEE5); assay: Off-target kinase panel; assay type: biochemical; settings: MI891 @ 1 µM
# Protocol: as §1
# [7] = molecular target: CDK7/cyclinH/MAT1(h) (Homo sapiens, UniProt P50613); assay: Off-target kinase panel; assay type: biochemical; settings: MI891 @ 1 µM
# Protocol: as §1
# [8] = molecular target: T6, MAPKAP-K2(h) (Homo sapiens, UniProt P49137); assay: Off-target kinase panel; assay type: biochemical; settings: MI891 @ 1 µM
# T6 construct: purchased Eurofins (Millipore) KinaseProfiler, inferred from the naming style
# Protocol: as §1
# [9] = molecular target: T7, PKCα(h) (Homo sapiens, UniProt P17252); assay: Off-target kinase panel; assay type: biochemical; settings: MI891 @ 1 µM
# T7 construct: purchased Eurofins (Millipore) KinaseProfiler, inferred from the naming style
# Protocol: as §1
# [10] = molecular target: T8, MEK1(h) (Homo sapiens, UniProt Q02750); assay: Off-target kinase panel; assay type: biochemical; settings: MI891 @ 1 µM
# T8 construct: purchased Eurofins (Millipore) KinaseProfiler, inferred from the naming style
# Protocol: as §1
# [11] = molecular target: ALK(h) (Homo sapiens, UniProt Q9UM73); assay: Off-target kinase panel; assay type: biochemical; settings: MI891 @ 1 µM
# Protocol: as §1
# [12] = molecular target: IGF-1R(h) (Homo sapiens, UniProt P08069); assay: Off-target kinase panel; assay type: biochemical; settings: MI891 @ 1 µM
# IGF-1R(h), sequence (P08069 31-1367): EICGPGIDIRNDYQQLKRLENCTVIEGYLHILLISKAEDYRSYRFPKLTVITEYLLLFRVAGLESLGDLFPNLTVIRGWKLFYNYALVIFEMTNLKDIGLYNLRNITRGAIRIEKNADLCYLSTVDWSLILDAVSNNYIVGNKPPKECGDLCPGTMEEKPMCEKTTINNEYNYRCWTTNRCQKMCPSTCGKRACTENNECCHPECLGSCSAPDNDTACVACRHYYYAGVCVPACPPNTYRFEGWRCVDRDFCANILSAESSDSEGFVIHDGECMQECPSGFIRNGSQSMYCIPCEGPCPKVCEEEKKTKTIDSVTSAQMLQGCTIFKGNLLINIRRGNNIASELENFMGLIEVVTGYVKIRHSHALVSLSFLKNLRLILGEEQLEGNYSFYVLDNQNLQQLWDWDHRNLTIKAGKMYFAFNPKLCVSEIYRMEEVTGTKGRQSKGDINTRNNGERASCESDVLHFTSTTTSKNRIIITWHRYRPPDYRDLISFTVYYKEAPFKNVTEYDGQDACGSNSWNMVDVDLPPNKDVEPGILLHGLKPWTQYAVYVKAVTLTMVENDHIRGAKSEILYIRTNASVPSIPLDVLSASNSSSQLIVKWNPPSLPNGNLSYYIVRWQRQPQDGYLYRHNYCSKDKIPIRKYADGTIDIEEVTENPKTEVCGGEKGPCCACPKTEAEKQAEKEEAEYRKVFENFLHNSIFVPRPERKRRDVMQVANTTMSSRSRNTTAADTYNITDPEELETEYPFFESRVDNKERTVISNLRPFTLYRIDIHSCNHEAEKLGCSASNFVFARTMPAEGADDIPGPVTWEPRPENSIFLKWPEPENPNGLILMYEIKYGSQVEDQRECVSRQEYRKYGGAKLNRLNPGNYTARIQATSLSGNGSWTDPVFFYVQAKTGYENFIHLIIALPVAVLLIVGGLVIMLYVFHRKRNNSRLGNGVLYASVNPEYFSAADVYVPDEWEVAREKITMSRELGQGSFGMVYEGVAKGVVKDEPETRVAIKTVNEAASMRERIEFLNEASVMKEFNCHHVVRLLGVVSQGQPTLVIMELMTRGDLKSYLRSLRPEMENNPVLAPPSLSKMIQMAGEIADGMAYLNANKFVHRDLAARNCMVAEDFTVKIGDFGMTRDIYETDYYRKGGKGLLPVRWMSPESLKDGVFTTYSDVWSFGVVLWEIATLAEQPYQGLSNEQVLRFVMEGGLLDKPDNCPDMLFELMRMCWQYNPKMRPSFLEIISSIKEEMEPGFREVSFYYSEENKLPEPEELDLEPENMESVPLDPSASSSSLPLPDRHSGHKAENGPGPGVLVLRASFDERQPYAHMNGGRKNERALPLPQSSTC
# Protocol: as §1
# [13] = molecular target: CHK1(h) (Homo sapiens, UniProt O14757); assay: Off-target kinase panel; assay type: biochemical; settings: MI891 @ 1 µM
# CHK1(h), sequence (O14757 whole entry): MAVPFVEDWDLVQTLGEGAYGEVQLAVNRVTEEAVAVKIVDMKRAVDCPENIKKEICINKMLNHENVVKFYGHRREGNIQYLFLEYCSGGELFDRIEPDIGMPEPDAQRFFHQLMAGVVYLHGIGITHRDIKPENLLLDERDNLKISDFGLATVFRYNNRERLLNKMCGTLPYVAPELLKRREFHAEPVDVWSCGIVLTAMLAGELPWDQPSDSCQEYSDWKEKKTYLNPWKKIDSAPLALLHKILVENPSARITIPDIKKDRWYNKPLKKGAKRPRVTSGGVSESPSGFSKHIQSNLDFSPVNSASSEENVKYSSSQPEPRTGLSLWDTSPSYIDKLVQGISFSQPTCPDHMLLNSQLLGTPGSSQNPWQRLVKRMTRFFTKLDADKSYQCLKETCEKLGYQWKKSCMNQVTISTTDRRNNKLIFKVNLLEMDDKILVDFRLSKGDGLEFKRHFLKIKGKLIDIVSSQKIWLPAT
# Protocol: as §1
# [14] = molecular target: T9, Lyn(h) (Homo sapiens, UniProt P07948); assay: Off-target kinase panel; assay type: biochemical; settings: MI891 @ 1 µM
# T9 construct: purchased Eurofins (Millipore) KinaseProfiler, inferred from the naming style
# Protocol: as §1
# [15] = molecular target: T10, NEK2(h) (Homo sapiens, UniProt P51955); assay: Off-target kinase panel; assay type: biochemical; settings: MI891 @ 1 µM
# T10 construct: purchased Eurofins (Millipore) KinaseProfiler, inferred from the naming style
# Protocol: as §1
# [16] = molecular target: T11, p70S6K(h) (Homo sapiens, UniProt P23443); assay: Off-target kinase panel; assay type: biochemical; settings: MI891 @ 1 µM
# T11 construct: purchased Eurofins (Millipore) KinaseProfiler, inferred from the naming style
# T11 sequence (P23443 whole entry): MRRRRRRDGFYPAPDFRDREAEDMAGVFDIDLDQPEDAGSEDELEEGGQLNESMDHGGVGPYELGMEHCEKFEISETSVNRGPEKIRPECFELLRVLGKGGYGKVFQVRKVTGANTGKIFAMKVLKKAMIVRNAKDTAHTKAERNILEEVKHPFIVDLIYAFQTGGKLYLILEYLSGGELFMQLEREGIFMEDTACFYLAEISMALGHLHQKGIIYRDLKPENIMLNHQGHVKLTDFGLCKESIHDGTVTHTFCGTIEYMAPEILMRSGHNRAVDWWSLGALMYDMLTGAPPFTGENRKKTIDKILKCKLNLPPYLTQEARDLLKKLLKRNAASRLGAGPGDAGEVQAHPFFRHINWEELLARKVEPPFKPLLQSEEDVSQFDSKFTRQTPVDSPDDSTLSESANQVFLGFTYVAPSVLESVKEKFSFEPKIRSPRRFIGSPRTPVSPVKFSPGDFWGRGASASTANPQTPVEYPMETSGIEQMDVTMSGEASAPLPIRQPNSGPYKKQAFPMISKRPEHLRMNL
# Protocol: as §1
# [17] = molecular target: T12, SRPK1(h) (Homo sapiens, UniProt Q96SB4); assay: Off-target kinase panel; assay type: biochemical; settings: MI891 @ 1 µM
# T12 construct: purchased Eurofins (Millipore) KinaseProfiler, inferred from the naming style
# Protocol: as §1
# [18] = molecular target: CaMKI(h) (Homo sapiens, UniProt Q14012); assay: Off-target kinase panel; assay type: biochemical; settings: MI891 @ 1 µM
# Protocol: as §1
# [19] = molecular target: T13, MLK1(h) (Homo sapiens, UniProt P80192); assay: Off-target kinase panel; assay type: biochemical; settings: MI891 @ 1 µM
# T13 construct: purchased Eurofins (Millipore) KinaseProfiler, inferred from the naming style
# Protocol: as §1
# [20] = molecular target: EphA5(h) (Homo sapiens, UniProt P54756); assay: Off-target kinase panel; assay type: biochemical; settings: MI891 @ 1 µM
# Protocol: as §1
# [21] = molecular target: CDK6/cyclinD3(h) (Homo sapiens, UniProt Q00534); assay: Off-target kinase panel; assay type: biochemical; settings: MI891 @ 1 µM
# Protocol: as §1
# [22] = molecular target: T14, Rse(h) (Homo sapiens, UniProt Q06418); assay: Off-target kinase panel; assay type: biochemical; settings: MI891 @ 1 µM
# T14 construct: purchased Eurofins (Millipore) KinaseProfiler, inferred from the naming style
# Protocol: as §1
# [23] = molecular target: T15, PKBα(h) (Homo sapiens, UniProt P31749); assay: Off-target kinase panel; assay type: biochemical; settings: MI891 @ 1 µM
# T15 construct: purchased Eurofins (Millipore) KinaseProfiler, inferred from the naming style
# T15 sequence (P31749 whole entry): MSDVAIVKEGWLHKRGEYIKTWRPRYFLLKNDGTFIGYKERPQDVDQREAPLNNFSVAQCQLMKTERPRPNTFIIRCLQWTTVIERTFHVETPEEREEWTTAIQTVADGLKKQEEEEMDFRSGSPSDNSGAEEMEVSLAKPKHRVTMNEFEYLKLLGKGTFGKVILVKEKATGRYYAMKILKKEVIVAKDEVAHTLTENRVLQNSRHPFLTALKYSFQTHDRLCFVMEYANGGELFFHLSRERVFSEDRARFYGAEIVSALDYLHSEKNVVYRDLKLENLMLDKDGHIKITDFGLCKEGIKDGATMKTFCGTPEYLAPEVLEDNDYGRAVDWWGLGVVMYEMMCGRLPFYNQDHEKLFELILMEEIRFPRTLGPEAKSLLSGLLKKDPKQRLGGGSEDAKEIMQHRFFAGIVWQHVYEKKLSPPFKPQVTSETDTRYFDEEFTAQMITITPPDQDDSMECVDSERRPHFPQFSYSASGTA
# Protocol: as §1
# [24] = molecular target: T16, IRAK4(h) (Homo sapiens, UniProt Q9NWZ3); assay: Off-target kinase panel; assay type: biochemical; settings: MI891 @ 1 µM
# T16 construct: purchased Eurofins (Millipore) KinaseProfiler, inferred from the naming style
# Protocol: as §1
# [25] = molecular target: T17, PDGFRβ(h) (Homo sapiens, UniProt P09619); assay: Off-target kinase panel; assay type: biochemical; settings: MI891 @ 1 µM
# T17 construct: purchased Eurofins (Millipore) KinaseProfiler, inferred from the naming style
# T17 sequence (P09619 33-1106): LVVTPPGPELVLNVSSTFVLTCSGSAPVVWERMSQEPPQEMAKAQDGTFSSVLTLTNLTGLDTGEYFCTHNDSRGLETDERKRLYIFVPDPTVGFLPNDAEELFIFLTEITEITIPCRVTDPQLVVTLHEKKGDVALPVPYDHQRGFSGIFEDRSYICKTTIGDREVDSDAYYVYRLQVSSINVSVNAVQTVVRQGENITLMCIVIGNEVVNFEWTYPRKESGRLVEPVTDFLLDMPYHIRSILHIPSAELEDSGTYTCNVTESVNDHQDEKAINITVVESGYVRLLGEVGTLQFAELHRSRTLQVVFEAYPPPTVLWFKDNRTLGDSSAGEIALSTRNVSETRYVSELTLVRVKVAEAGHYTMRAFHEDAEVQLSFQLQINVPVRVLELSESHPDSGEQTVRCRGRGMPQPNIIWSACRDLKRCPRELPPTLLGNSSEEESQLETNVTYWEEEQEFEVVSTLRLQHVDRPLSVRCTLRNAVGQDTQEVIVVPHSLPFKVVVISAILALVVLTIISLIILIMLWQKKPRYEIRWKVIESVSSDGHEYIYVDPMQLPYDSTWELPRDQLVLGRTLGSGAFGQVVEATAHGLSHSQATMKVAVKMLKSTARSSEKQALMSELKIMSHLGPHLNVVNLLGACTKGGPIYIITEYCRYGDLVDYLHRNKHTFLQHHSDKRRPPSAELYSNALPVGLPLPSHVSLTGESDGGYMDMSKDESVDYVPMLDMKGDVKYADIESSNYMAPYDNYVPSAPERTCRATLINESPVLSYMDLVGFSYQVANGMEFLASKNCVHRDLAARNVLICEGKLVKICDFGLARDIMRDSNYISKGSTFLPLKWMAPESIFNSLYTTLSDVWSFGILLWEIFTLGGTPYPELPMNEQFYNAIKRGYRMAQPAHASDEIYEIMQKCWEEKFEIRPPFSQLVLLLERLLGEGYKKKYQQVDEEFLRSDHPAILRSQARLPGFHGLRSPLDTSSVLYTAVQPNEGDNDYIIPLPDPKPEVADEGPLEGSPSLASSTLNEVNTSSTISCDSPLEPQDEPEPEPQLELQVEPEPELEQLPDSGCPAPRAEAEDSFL
# Protocol: as §1
# [26] = molecular target: Fyn(h) (Homo sapiens, UniProt P06241); assay: Off-target kinase panel; assay type: biochemical; settings: MI891 @ 1 µM
# Protocol: as §1
# [27] = molecular target: T18, LOK(h) (Homo sapiens, UniProt O94804); assay: Off-target kinase panel; assay type: biochemical; settings: MI891 @ 1 µM
# T18 construct: purchased Eurofins (Millipore) KinaseProfiler, inferred from the naming style
# Protocol: as §1
# [28] = molecular target: T19, PAK2(h) (Homo sapiens, UniProt Q13177); assay: Off-target kinase panel; assay type: biochemical; settings: MI891 @ 1 µM
# T19 construct: purchased Eurofins (Millipore) KinaseProfiler, inferred from the naming style
# Protocol: as §1
# [29] = molecular target: CDK9/cyclin T1(h) (Homo sapiens, UniProt P50750); assay: Off-target kinase panel; assay type: biochemical; settings: MI891 @ 1 µM
# Protocol: as §1
# [30] = molecular target: EphB4(h) (Homo sapiens, UniProt P54760); assay: Off-target kinase panel; assay type: biochemical; settings: MI891 @ 1 µM
# Protocol: as §1
# [31] = molecular target: T20, PKCθ(h) (Homo sapiens, UniProt Q04759); assay: Off-target kinase panel; assay type: biochemical; settings: MI891 @ 1 µM
# T20 construct: purchased Eurofins (Millipore) KinaseProfiler, inferred from the naming style
# Protocol: as §1
# [32] = molecular target: CK1γ1(h) (Homo sapiens, UniProt Q9HCP0); assay: Off-target kinase panel; assay type: biochemical; settings: MI891 @ 1 µM
# CK1γ1(h), sequence (Q9HCP0 whole entry): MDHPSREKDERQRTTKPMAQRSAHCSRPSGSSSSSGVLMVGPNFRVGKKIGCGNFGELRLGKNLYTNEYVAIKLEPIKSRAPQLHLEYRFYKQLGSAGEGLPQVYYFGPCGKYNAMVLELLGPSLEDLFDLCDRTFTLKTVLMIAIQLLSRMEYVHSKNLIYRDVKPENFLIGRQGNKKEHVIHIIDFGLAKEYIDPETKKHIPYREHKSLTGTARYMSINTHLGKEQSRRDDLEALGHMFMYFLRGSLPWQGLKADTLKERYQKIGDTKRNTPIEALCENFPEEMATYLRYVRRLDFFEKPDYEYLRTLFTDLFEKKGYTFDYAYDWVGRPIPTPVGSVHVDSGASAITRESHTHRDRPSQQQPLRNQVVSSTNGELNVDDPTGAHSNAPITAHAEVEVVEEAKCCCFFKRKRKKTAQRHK
# Protocol: as §1
# [33] = molecular target: T21, PI3 Kinase (p120g)(h) (Homo sapiens, UniProt P48736); assay: Off-target kinase panel; assay type: biochemical; settings: MI891 @ 1 µM
# T21 construct: purchased Eurofins (Millipore) KinaseProfiler, inferred from the naming style
# Protocol: as §1
# [34] = molecular target: IKKα(h) (Homo sapiens, UniProt O15111); assay: Off-target kinase panel; assay type: biochemical; settings: MI891 @ 1 µM
# IKKα(h), sequence (O15111 whole entry): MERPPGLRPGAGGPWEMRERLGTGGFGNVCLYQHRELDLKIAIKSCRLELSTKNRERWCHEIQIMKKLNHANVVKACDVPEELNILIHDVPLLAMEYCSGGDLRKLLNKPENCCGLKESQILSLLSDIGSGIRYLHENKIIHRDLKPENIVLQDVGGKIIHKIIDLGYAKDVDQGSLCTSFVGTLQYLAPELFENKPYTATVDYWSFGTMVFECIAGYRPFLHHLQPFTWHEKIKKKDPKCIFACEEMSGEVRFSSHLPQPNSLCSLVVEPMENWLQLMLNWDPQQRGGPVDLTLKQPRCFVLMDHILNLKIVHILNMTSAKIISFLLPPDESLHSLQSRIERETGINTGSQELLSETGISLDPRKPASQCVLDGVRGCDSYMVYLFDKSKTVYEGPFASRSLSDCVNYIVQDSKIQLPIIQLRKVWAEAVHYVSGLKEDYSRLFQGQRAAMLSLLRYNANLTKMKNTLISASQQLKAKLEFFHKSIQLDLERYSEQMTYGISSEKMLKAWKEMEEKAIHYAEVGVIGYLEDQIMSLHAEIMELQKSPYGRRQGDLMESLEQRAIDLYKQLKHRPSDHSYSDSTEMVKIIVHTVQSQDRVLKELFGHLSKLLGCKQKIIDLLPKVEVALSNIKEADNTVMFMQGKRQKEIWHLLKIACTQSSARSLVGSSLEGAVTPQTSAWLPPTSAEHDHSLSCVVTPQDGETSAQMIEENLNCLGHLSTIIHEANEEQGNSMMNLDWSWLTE
# Protocol: as §1
# [35] = molecular target: c-RAF(h) (Homo sapiens, UniProt P04049); assay: Off-target kinase panel; assay type: biochemical; settings: MI891 @ 1 µM
# Protocol: as §1
structure (smiles),measurement,setting,value
"NC(=O)c1cc(Cn2cc(-c3c(-c4ccc(Cl)cc4)nc4c(F)cc(F)cn34)nn2)ccc1Cl [Compound 11, 2-Chloro-5-((4-(2-(4-chlorophenyl)-6,8-difluoroimidazo[1,2-a]pyridin-3-yl)-1H-1,2,3-triazol-1-yl)methyl)-benzamide]",IC50,"[1]; IC50, antagonistic activity for rifampicin (1 μM)-activated PXR, rifampicin 1 μM, HepG2",0.378 µM
same,IC50,"[1]; IC50, antagonistic mode, MI891 + Rif-5 μM, rifampicin 5 μM, HepG2",3.5 µM
same,IC50,"[1]; PXR antagonism: PXR inhibition (IC50, μM), antagonist mode with 10 μM rifampicin, mean ± SD, n = 3",3.8 µM and 3.76 µM
same,activity at 1 µM,[2],86%
same,activity at 1 µM,[3],86%
same,activity at 1 µM,[4],98%
same,activity at 1 µM,[5],96%
same,activity at 1 µM,[6],105%
same,activity at 1 µM,[7],94%
same,activity at 1 µM,[8],101%
same,activity at 1 µM,[9],97%
same,activity at 1 µM,[10],94%
same,activity at 1 µM,[11],76%
same,activity at 1 µM,[12],99%
same,activity at 1 µM,[13],93%
same,activity at 1 µM,[14],88%
same,activity at 1 µM,[15],103%
same,activity at 1 µM,[16],105%
same,activity at 1 µM,[17],98%
same,activity at 1 µM,[18],95%
same,activity at 1 µM,[19],104%
same,activity at 1 µM,[20],106%
same,activity at 1 µM,[21],92%
same,activity at 1 µM,[22],109%
same,activity at 1 µM,[23],100%
same,activity at 1 µM,[24],112%
same,activity at 1 µM,[25],86%
same,activity at 1 µM,[26],81%
same,activity at 1 µM,[27],94%
same,activity at 1 µM,[28],84%
same,activity at 1 µM,[29],124%
same,activity at 1 µM,[30],97%
same,activity at 1 µM,[31],90%
same,activity at 1 µM,[32],100%
same,activity at 1 µM,[33],102%
same,activity at 1 µM,[34],104%
same,activity at 1 µM,[35],101%
